Measurements: patent publication US6355614B1, “Cyclic boroproline compounds” (Point Therapeutics, priority 1998, dated 2002)

Assay: Conformational equilibrium of open chain and cyclic forms in aqueous solution (from apparent Ki at equilibrium vs true Ki)
Format: physicochemical
Settings: at equilibrium at pH 7.0
From the text: See FIG. 3 which is a diagram showing the structures of the open and cyclized forms of Xaa-boroPro inhibitors (conformational equilibrium of Xaa-boroproline inhibitors). The open, active, inhibitory chain species is favored at low pH while the cyclized structure is favored at neutral pH. The reaction is fully reversible: the open chain becomes predominant at low pH. The open chain to cyclic species reaction involves a trans to cis isomerization of the proline and the formation of a new N—B bond. […] G. Gutheil and W. W. Bachovchin, Separation of L-Pro-DL-boroPro into Its Component Diastereomers and Kinetic Analysis of Their Inhibition of Dipeptidyl Peptidase IV. A New Method for the Analysis of Slow, Tight-Binding Inhibition, Biochemistry 32, 8723-8731 (1993)).

Compound	fraction existing as the open chain, inhibitory species
O=C(C1CCCN1)N1CCCC1B(O)O (centres unmarked) [Pro-boroPro]	less than 1%
CC(C)C(N)C(=O)N1CCCC1B(O)O (centres unmarked) [Val-boroPro]	less than 0.1%
